Experimental data: ChEMBL document CHEMBL1201862, “PubChem BioAssay data set” (2004)
Active and inactive are the calls of the source. Cut-off read from the data, not from the text of the source, for most assays here: actives have a measured EC50 and inactives only a lower limit.

Columns and labels:
[1] = tested on: Streptococcus sp. 'group A'; assay: Streptococcus pyogenes SK(-)GAS viability under kanamycin – luminescence, BacTiterGlo, confirmation, counter-screen for streptokinase expression inhibitor project, dose response (AID 1900); format: functional, organism-based
[2] = tested on: BJ; assay: BJ-TERT fibroblast viability loss – cell-based, RAS-independent, luminescence, dose response (AID 1933); format: functional; conditions: Homo sapiens
[3] = target: Beta-galactosidase (Escherichia coli, UniProt Q8VNN2); assay: PubChem AID 485352; format: functional
[4] = target: T1, Streptokinase A (Streptococcus pyogenes serotype M1, UniProt P10520); assay: viability-normalized secreted streptokinase activity reduction – plasminogen activation absorbance, OD405, dose response (AID 1914); format: functional, Streptococcus pyogenes M1 GAS;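 note: secreted streptokinase activity via plasminogen activation per viability signal from cell pellet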
T1 sequence (P10520 whole entry): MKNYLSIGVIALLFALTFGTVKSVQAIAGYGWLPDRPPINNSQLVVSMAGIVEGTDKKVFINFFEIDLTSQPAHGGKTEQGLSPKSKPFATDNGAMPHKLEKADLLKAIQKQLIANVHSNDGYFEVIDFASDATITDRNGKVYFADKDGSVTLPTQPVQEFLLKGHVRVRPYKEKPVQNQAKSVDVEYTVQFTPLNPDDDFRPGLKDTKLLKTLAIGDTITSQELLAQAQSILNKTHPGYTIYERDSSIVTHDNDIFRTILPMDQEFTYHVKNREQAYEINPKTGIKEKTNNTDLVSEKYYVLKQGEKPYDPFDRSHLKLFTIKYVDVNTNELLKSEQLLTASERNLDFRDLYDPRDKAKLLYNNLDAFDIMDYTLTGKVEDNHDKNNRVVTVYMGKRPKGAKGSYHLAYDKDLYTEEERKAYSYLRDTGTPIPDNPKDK

[5] = tested on: BJ; assay: cells; format: functional, cell-based; conditions: Homo sapiens
[6] = target: Large T antigen (Simian virus 40, UniProt P03070); format: functional, Betapolyomavirus macacae;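 note: Confirmatory-stage PubChem screen for compounds that inhibit SV40 T antigen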
[7] = Trypanosoma cruzi growth suppression in host cells – NIH3T3 host cells, beta-gal luminescence, confirmation (AID 2044); format: functional, cell-based;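 note: intracellular parasites grown in NIH/3T3 mouse fibroblasts as host cells; luminescent beta-galactosidase reporter signal from transgenic T. cruzi replicating inside host cells; inhibitors lower the luminescence signal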
[8] = target: T2, Type-1 angiotensin II receptor (Homo sapiens, UniProt P30556); assay: antagonism of angiotensin II type 1 receptor – cell-based, uHTS hits, selectivity assay for APJ receptor antagonist project, dose response (AID 463214); format: functional;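 note: antagonist potency against angiotensin II stimulated AT1 response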
T2 sequence (P30556 whole entry): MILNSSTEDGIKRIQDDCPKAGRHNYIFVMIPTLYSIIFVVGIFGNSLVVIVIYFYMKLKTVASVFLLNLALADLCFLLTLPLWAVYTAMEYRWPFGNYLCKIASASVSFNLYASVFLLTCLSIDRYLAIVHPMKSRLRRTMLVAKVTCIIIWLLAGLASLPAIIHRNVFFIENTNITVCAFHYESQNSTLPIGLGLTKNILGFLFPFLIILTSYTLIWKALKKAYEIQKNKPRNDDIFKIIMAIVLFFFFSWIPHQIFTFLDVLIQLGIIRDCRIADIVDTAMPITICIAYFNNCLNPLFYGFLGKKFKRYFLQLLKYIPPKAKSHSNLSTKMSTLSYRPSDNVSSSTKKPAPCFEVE

[9] = NIH3T3 cell viability loss – ATP luminescence, mouse fibroblasts, counter-screen, dose response (AID 2010); format: functional, cell-based;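 note: cells exposed to compound for about 90 hours before reading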
[10] = tested on: BJ; assay: BJ-TERT-LT-ST fibroblast viability loss – cell-based, RAS-independent, luminescence, dose response (AID 1935); format: functional; conditions: Homo sapiens;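 note: BJ fibroblasts immortalized with TERT plus LT and ST oncogenes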
[11] = DRD fibroblast viability loss – cell-based, non-viral oncogenic, luminescence, dose response (AID 1934); format: functional; conditions: Homo sapiens
[12] = tested on: Streptococcus; assay: GAS UMAA2166 growth inhibition – luminescence, BacTiterGlo, counter-screen for streptokinase expression inhibitor project, dose response (AID 1915); format: functional, organism-based;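 note: potency for reduction of bacterial viability or growth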
[13] = target: T3, Heat shock factor protein 1 (Mus musculus, UniProt P38532); assay: enhancement of HSF1-driven luciferase signal – cell-based, NIH3T3, luminescence, dose retest, confirmation (AID 435004); format: functional;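 note: stress induced by proteasome inhibitor MG132 added 30 min after compound; luciferase reporter driven by HSF1 response element in NIH3T3 cells; actives raise luminescence as potentiators of the MG132 stress response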
T3 sequence (P38532 whole entry): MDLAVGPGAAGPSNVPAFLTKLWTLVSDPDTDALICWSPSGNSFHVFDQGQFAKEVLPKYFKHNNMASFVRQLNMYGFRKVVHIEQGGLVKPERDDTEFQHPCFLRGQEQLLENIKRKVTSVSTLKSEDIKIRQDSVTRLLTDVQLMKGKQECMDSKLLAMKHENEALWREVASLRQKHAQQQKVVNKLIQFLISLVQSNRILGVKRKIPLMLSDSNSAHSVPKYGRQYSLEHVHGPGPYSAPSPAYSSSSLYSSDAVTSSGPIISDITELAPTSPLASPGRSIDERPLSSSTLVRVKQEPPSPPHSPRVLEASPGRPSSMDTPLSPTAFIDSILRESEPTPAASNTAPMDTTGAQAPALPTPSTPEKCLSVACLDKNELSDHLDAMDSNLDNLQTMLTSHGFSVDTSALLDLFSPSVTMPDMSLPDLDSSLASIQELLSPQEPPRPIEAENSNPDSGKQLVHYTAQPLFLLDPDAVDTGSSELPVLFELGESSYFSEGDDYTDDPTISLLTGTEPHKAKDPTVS

[14] = tested on: CHO; assay: CHO cell viability loss, potency – luminescence, cytotoxicity control for TLR9-MyD88 binding inhibitor project, dose response (AID 588339); format: functional, cell-based, hamster; conditions: Cricetulus griseus;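 note: CHO cells stably coexpressing TLR9 and MyD88 fusions from primary screen; compound exposure lasted 48 hours before viability readout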
[15] = target: T4, High affinity choline transporter 1 (Homo sapiens, UniProt Q9GZV3); assay: human choline transporter blockers, potency – cell-based, 5-point CRC, membrane potential dye, dose response (AID 504840); format: functional
T4 sequence (Q9GZV3 whole entry): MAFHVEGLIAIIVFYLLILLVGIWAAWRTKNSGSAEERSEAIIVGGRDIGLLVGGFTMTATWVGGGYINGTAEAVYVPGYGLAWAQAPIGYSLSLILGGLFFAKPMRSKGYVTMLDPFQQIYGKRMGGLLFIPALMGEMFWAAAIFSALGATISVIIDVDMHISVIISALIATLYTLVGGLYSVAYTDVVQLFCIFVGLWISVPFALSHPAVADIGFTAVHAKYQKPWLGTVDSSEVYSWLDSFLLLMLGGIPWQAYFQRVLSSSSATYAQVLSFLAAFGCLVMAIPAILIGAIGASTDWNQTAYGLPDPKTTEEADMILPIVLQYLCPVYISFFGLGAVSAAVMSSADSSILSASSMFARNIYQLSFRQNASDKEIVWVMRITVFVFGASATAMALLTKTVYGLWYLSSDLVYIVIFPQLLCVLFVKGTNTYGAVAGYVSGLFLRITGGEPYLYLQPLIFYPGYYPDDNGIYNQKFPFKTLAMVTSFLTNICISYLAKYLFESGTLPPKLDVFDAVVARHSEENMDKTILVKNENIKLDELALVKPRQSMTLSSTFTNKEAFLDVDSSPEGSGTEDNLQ

[16] = target: Beta Lactamase (Pseudomonas aeruginosa, UniProt Q932Y6); assay: BLA reporter interference, concentration series – BLA reporter cells, FRET fluorescence, artefact control for TLR9-MyD88 binding inhibitor project, dose response (AID 588341); format: cell-based;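 note: cell based assay in CHO-K1 cells stably expressing beta-lactamase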
[17] = target: T4, High affinity choline transporter 1; assay: human choline transporter blockers, potency – cell-based, 10-point CRC, membrane potential dye, dose response (AID 588401); format: functional;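 note: membrane potential dye fluorescence of choline-evoked depolarization via CHT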
[18] = Fluorescence-based cell-based high throughput dose response assay for inhibitors of the interaction of nucleotide-binding oligomerization domain containing 2 (NOD2) and the receptor-interacting serine-threonine kinase 2 (RIPK2).; format: functional; conditions: Homo sapiens

Chain of Beta Lactamase (Q932Y6 whole entry): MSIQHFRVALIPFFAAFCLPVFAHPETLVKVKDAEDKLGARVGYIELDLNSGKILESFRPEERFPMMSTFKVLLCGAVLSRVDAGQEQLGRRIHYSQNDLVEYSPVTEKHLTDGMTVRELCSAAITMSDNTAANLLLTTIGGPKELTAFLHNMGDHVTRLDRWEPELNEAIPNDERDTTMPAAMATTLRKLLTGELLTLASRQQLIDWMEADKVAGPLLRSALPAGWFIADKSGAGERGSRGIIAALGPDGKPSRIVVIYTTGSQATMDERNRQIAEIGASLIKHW
Chain of Large T antigen (P03070 whole entry): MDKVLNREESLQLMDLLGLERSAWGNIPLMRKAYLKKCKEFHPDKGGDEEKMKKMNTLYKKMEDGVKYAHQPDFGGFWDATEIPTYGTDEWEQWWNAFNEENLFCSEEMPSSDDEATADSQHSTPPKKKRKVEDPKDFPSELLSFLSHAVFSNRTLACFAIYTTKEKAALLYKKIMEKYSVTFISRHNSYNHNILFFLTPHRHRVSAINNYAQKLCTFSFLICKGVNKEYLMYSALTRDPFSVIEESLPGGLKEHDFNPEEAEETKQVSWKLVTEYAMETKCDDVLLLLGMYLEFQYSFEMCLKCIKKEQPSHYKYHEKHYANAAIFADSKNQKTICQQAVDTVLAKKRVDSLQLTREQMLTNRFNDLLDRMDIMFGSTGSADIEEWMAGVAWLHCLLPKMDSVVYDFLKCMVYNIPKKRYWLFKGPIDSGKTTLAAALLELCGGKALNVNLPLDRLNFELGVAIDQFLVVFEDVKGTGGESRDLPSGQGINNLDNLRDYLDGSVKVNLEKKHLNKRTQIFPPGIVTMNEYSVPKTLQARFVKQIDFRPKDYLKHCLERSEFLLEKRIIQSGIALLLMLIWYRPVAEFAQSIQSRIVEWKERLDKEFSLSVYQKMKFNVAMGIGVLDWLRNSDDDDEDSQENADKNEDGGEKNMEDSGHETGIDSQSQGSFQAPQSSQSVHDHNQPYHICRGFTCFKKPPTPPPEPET
Chain of Beta-galactosidase (Q8VNN2 whole entry): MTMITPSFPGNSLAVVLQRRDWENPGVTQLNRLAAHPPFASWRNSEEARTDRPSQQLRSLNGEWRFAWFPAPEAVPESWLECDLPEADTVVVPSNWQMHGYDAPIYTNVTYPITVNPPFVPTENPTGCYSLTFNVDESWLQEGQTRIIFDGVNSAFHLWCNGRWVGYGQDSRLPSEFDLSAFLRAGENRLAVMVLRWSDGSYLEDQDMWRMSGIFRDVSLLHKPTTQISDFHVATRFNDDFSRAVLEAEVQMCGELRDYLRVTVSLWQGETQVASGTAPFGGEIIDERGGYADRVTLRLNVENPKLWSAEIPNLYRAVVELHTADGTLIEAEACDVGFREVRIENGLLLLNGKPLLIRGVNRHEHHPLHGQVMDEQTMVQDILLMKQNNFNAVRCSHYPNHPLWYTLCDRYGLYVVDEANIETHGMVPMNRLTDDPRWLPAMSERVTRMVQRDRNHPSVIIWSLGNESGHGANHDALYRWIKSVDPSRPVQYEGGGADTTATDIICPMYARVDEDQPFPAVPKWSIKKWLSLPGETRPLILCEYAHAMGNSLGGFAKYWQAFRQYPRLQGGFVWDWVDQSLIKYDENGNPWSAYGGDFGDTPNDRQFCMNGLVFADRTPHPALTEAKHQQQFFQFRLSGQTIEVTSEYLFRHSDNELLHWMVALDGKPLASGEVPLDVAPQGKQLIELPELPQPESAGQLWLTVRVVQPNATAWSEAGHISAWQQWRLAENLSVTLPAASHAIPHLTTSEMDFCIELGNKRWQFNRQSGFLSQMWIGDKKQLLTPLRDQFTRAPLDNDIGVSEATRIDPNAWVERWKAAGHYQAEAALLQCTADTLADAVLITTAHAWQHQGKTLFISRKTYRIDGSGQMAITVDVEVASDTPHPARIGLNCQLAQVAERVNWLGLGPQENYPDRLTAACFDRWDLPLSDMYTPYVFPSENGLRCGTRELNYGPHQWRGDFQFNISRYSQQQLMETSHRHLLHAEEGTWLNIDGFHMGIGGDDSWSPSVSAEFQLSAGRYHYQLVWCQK

CCn1nc(C)cc1-c1nnc(Sc2ncc([N+](=O)[O-])s2)n1C
> 150 µM (not active): EC50 [4]
inactive: EC50 [3] > 40 µM | IC50 [16] 46 µM
active: EC50 [1] 7.07 µM | EC50 [2] 2.09 µM | EC50 [5] 7.27 µM | IC50 [6] 17.6 µM | EC50 [7] 0.759 µM | IC50 [8] 5.36 µM | EC50 [9] 3.07 µM | EC50 [11] 5.37 µM | EC50 [12] 12.4 µM | IC50 [14] 1.08 µM | IC50 [15] 8.13 µM | IC50 [17] 3.76 µM | IC50 [18] 0.802 µM
inconclusive: EC50 [10] 3.46 µM | EC50 [13] 2.9 µM
